Measured values from article doi:10.1101/2025.09.04.674342, “Tandem association of CLOCK:BMAL1 complexes on DNA enables recruitment of CBP/p300 through multivalent interactions” (bioRxiv, 2025).
Each block holds one molecule with its values, some of them ahead of it. No end group written: not given here.

Assays:
[1] = system: CREB-induced Per1-luc activation; experiment: Per1-luc reporter in HEK293T cells after forskolin stimulation; format: cell-based, human; conditions: compounds 16 hours, 10 μM forskolin 2 hours before harvest, n = 3, Fig. 5g
Protocol: HEK293T cells were purchased from ATCC (cat. #CRL-3216) were cultured in 10% DMEM (i.e. 10% (v/v) FBS) and 1X penicillin-streptomycin (Thermo Fisher) at 37°C in an incubator humidified with 5% CO2. Forskolin (CAS 66575-29-9, cat. #F3917, Sigma Aldrich), KG-501/naphthol-AS-E-phosphate (CAS 18228-17-6, cat. #70485, Sigma Aldrich), XX-650–23 (CAS 117739-40-9, cat. #AOB31725, Aobious), and 666–15 (CAS 1433286-70-4, cat. #AMBH97F07B56, Sigma Aldrich) were stored as recommended by the manufacturer and assessed by 1D NMR before use.
For Per1-luc reporter assays with inhibitors, 48-well plates with HEK293T cells were transfected with LT-1 (Mirus) and the following plasmids in duplicate: 5 ng pGL3 Per1-luciferase[8] and 395 ng empty pcDNA4 vector; for CLOCK:BMAL1 activity, 5 ng pGL3 Per1-luciferase, 100 ng pSG5 Clock, 100 ng pSG5 Bmal1, and 195 ng empty pcDNA4 vector. Cells were treated with compounds as indicated or 1% DMSO 24 hours after transfection for 16 hours prior to harvesting. For forskolin treatment, 10 μM forskolin was added 2 hours prior to harvesting. Cells were lysed in Passive Lysis Buffer ([…]) according to the protocol and luciferase activity was measured with Bright-Glo reagent ([…]) on an EnVision plate reader (Perkin Elmer). Each reporter assay was repeated at least three times.

[2] = target: T1, CBP KIX (Mus musculus, UniProt P45481); experiment: Fluorescence polarization competition assay, CBP KIX:TAD WT titrated with KG-501; format: binding
T1 construct: mouse CBP (UniProt P45481) KIX (residues 586–672); made in house; host or cells: Rosetta (DE3) E. coli
T1 sequence (P45481 586-672): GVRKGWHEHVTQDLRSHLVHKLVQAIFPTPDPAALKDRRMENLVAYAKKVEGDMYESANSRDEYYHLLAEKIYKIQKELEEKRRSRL
Protocol: TAMRA fluorescent probe covalently attached to the N-terminus; the C-terminus of the Δswitch peptide was amidated, while the others were left as a free carboxyl group. Equilibrium binding assays (Fig. 5b) with CBP KIX, TAZ1, and TAZ2 and competition assay with CBP KIX:TAD WT titrated with KG-501 (Fig. 5i) were performed in 10 mM MES pH 6.5, 50 mM NaCl and 0.05% (v/v) Tween-20. Concentrated stocks of BMAL1 TAD probes were stored between 15–200 μM at −70°C and diluted in assay buffer to 50 nM alone (binding assays) or to 10 nM bound to 2 μM CBP KIX (competition assay) and in the presence of increasing concentrations of KG-501. Plates were incubated at room temperature for 10–20 minutes prior to analysis. Binding was monitored by changes in fluorescence polarization with an EnVision 2103 multilabel plate reader (Perkin Elmer) with excitation at 531 nm and emission at 595 nm. The Hill coefficient and equilibrium binding dissociation constant (KD) were calculated by fitting the dose-dependent change in millipolarization (Δmp) to a one-site specific binding model (binding assays) or an [inhibitor] vs. response (three parameters) model (competition assay) in Prism (GraphPad). Data shown for equilibrium binding assays are from a representative experiment (n=4 replicates) of three independent assays (Fig. 5b). […]

[3] = cited from earlier work
[4] = system: CREB; design: method as in PMID 19810079, PMID 27211267; conditions: cited from earlier work
[5] = system: 3mut CBP KIX (Y650A, A654Q, Y658A); experiment: Isothermal titration calorimetry, 3mut CBP KIX with BMAL1 TAD; format: binding, mouse; conditions: same conditions as WT KIX; Fig. 4b
Protocol: (§1) ITC measurements were obtained as previously described. Briefly, proteins were extensively dialyzed at 4°C in 10 mM MES pH 6.5, 50 mM NaCl using a 2 kDa molecular weight cutoff filter dialysis tubing (Spectrum Labs) prior to collecting ITC data. ITC was performed on a MicroCal VP-ITC calorimeter at 25°C with a stir speed of 177 rpm, reference power of 10 μCal/sec and 10 μL injection sizes. Protein ratios for the cell and syringe for the ITC assays (3 independent runs for each complex) were 220–230 μM CBP KIX WT or 3mut titrated into 20–25 μM BMAL1 TAD WT or L606A/L607A as indicated (stoichiometry (n) = 0.8–1.1). All data were best fit by a one-site binding model using Origin software.

[6] = system: 3mut CBP KIX (Y650A, A654Q, Y658A); experiment: 15N-1H HSQC NMR titration of 15N BMAL1 TAD with 3mut CBP KIX; format: binding, mouse; conditions: versus WT KIX
Protocol: (§2) NMR experiments were conducted on a Varian INOVA 600-MHz spectrometer equipped with ^1H, ^13C, ^15N triple resonance, Z-axis pulsed field gradient cryoprobe. All NMR data were collected at 25°C. NMR data were processed using NMRPipe/NMRDraw[79]. ^15N-^1H HSQC spectra CBP KIX were performed in 330 μL volume in a Shigemi tube with 100 μM ^15N CBP KIX in NMR buffer (10 mM MES pH 6.5, 50 mM NaCl) and 10% (v/v) D2O in the presence of stepwise additions of concentrated stocks of BMAL1 TAD or truncated peptides. ^15N-^1H HSQC spectra of BMAL1 TAD WT or L606A/L607A were performed in 330 μL volume in a Shigemi tube with 100 μM ^15N BMAL1 TAD in NMR buffer (10 mM MES pH 6.5, 50 mM NaCl) and 10% (v/v) D2O in the presence of stepwise additions of CBP KIX (WT or 3mut), TAZ1, or TAZ2, followed by concentration in an Amicon Ultra centrifugal filter with a 3 kDa MWCO (Merck Millipore). Chemical shift assignments of BMAL1 TAD (entry 25280) and CBP KIX (entry 6750) were obtained from the Biological Magnetic Resonance Data Bank (BMRB); CBP KIX assignments at pH 5.5 were transferred to the spectrum at pH 6.5 via a 3-step pH titration. Titration data for protein interactions were analyzed with NMRViewJ (One Moon Scientific) using chemical shift perturbations defined by the equation ΔδTOT = [(Δδ^1H)^2 + (χ(Δδ^15N)^2]^½ and normalized with the scaling factor χ = 0.5[80].

[7] = target: WT CBP KIX; experiment: Isothermal titration calorimetry, CBP KIX WT with BMAL1 TAD; format: binding, mouse
Protocol: as §1

[8] = target: T1, CBP KIX; experiment: 15N-1H HSQC NMR titration of 15N CBP KIX with BMAL1 TAD peptides; format: binding; conditions: for binding of locked switch peptides to CBP KIX by pattern of CSPs: Fig. 3d
Protocol: as §2

[9] = target: T2, CBP TAZ2 (Mus musculus, UniProt P45481, C1776A/C1784A/C1827A/C1828A); experiment: 15N-1H HSQC NMR titration of 15N BMAL1 TAD L606A/L607A with CBP TAZ2; format: binding; conditions: 100 μM 15N TAD L606A/L607A; Fig. 6g,h
T2 construct: Mouse CBP (UniProt P45481) TAZ2 (residues 1764–1855); MBP; made in house; host or cells: E. coli (BL21)
T2 sequence (P45481 1764-1855 C1776A/C1784A/C1827A/C1828A): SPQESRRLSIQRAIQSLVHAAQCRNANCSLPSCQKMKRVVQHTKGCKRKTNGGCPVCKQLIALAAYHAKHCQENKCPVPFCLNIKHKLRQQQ
Protocol: as §2

[10] = target: T1, CBP KIX; experiment: 15N-1H HSQC NMR titration of 15N BMAL1 TAD L606A/L607A with CBP KIX; format: binding; conditions: versus WT TAD with WT KIX
Protocol: as §2

[11] = target: T3, CBP TAZ1 (Mus musculus, UniProt P45481); experiment: 15N-1H HSQC NMR titration of 15N BMAL1 TAD L606A/L607A with CBP TAZ1; format: binding; conditions: 100 μM 15N TAD L606A/L607A; Fig. 6e,f
T3 construct: Mouse CBP (UniProt P45481) TAZ1 (residues 340–439); made in house; host or cells: Rosetta (DE3) E. coli
T3 sequence (P45481 340-439): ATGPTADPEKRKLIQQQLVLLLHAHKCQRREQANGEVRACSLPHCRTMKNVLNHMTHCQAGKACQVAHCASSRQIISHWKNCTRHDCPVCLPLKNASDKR
Protocol: as §2

Molecule: O=C(Nc1ccc(Cl)cc1)c1cc2ccccc2cc1OP(=O)(O)O [KG-501, naphthol-AS-E-phosphate]
Activation of Per1-luc reporter after forskolin (Fsk) stimulation [1]: moderately decreased potency relative to the others | IC50 ([2]; 2 μM CBP KIX bound to 10 nM [5,6] TAMRA-labeled minimal BMAL1 TAD probe, 10 mM MES pH 6.5, 50 mM NaCl, 0.05% Tween-20, mean from 2 replicates done in duplicate, read-out: IC50, displacement of CBP KIX from TAD probe): 222 ± 22.5 µM | Ki ([2]; KD = 2 μM set for the BMAL1 TAD-CBP KIX interaction, read-out: Ki calculated from the Cheng-Prusoff equation): 111 µM

Molecule: N#Cc1ccc(NC(=O)c2cc3ccccc3cc2O)cc1 [XX-650–23]
solubility [3]: poor solubility | activity in cells relative to KG-501 [4]: more active in cells

Molecule: BMAL1 TAD: recombinant mouse BMAL1 transactivation domain, residues 579–626
binding by ITC (in words) [5]: disrupted | reduction of affinity by mutation of the CBP KIX c-Myb site [6]: about 100 fold | Kd ([7]; 220–230 μM CBP KIX titrated into 20–25 μM BMAL1 TAD, 10 mM MES pH 6.5, 50 mM NaCl, 25°C, 3 independent runs, one-site model, read-out: KD by ITC): ~2 µM

Molecule: FSDLPWAL [P625A switch, trans-locked switch peptide with P625A substitution]
binding of locked switch peptides to CBP KIX by pattern of CSPs ([8]; 100 μM 15N CBP KIX): can bind at the MLL1 site

Now from value to molecule:

KD for the CBP KIX domain estimated by fitting concentration-dependent CSPs ([8]; 100 μM 15N CBP KIX, 10 mM MES pH 6.5, 50 mM NaCl, 25°C, Fig. 3b): hundreds of micromolar | Kd ([8]; 100 μM 15N CBP KIX, 10 mM MES pH 6.5, 50 mM NaCl, 25°C, Fig. 3b, read-out: KD for the CBP KIX domain estimated by fitting concentration-dependent CSPs): > 500 µM
Molecule: FSDLPWPL-OH [switch]

binding of locked switch peptides to CBP KIX by pattern of CSPs ([8]; 100 μM 15N CBP KIX): can bind at the MLL1 site
Molecule: FSDLPWdmPL [P625dmP-switch, cis-locked switch peptide with 5,5-dimethyl L-proline at position 625]

interaction with CBP TAZ2 by 15N-1H HSQC [9]: retained interaction | reduction of affinity for CBP KIX by mutation in the BMAL1 TAD helix [10]: about 100 fold | binding by ITC (in words) ([7]; same conditions as WT TAD, Fig. 4e): did not yield any binding heats | changes of the 15N-1H HSQC spectrum on addition of CBP TAZ1 [11]: almost no changes to the spectrum
Molecule: TAD LL/AA: recombinant BMAL1 TAD (579–626) with L606A/L607A mutation of the IXXLL motif

apparent affinity for CBP KIX relative to the isolated switch peptide ([8]; 100 μM 15N CBP KIX titrated with peptide, Fig. 3a): modestly higher apparent affinity | site of chemical shift perturbations on CBP KIX ([8]; peptide 100 μM, 1:1 stoichiometry with 15N CBP KIX, Fig. 2e): perturbs the MLL1 site
Molecule: linker-switch: residues 613–626 of mouse BMAL1 (LGGPVDFSDLPWPL)
